Assay results: ChEMBL document CHEMBL4507317, “Data for DCP probe BAY-899” (2021)

Legend:
[1] = target: Atypical kinase COQ8A, mitochondrial (Homo sapiens) (UniProt Q8NI60); settings: Compound concentration 1000.0 nM
[2] = target: Atypical kinase COQ8B, mitochondrial (Homo sapiens) (UniProt Q96D53); settings: Compound concentration 1000.0 nM
[3] = target: Mitogen-activated protein kinase kinase kinase 5 (Homo sapiens) (UniProt Q99683); settings: Compound concentration 1000.0 nM
[4] = target: Bone morphogenetic protein receptor type-1B (Homo sapiens) (UniProt O00238); settings: Compound concentration 1000.0 nM
[5] = target: Calcium/calmodulin-dependent protein kinase type 1D (Homo sapiens) (UniProt Q8IU85); settings: Compound concentration 1000.0 nM
[6] = target: Calcium/calmodulin-dependent protein kinase type IV (Homo sapiens) (UniProt Q16566); settings: Compound concentration 1000.0 nM
[7] = target: Cyclin-dependent kinase 7 (Homo sapiens) (UniProt P50613); settings: Compound concentration 1000.0 nM
[8] = target: Dual specificity protein kinase CLK2 (Homo sapiens) (UniProt P49760); settings: Compound concentration 1000.0 nM
[9] = target: Megakaryocyte-associated tyrosine-protein kinase (Homo sapiens) (UniProt P42679); settings: Compound concentration 1000.0 nM
[10] = target: Ephrin type-A receptor 3 (Homo sapiens) (UniProt P29320); settings: Compound concentration 1000.0 nM
[11] = target: Mitogen-activated protein kinase 6 (Homo sapiens) (UniProt Q16659); settings: Compound concentration 1000.0 nM
[12] = target: Fibroblast growth factor receptor 1 (Homo sapiens) (UniProt P11362); settings: Compound concentration 1000.0 nM
[13] = system: Receptor-type tyrosine-protein kinase FLT3 (Homo sapiens), P36888 [D835V]; settings: Compound concentration 1000.0 nM
[14] = target: Cyclin-G-associated kinase (Homo sapiens) (UniProt O14976); settings: Compound concentration 1000.0 nM
[15] = target: Serine/threonine-protein kinase haspin (Homo sapiens) (UniProt Q8TF76); settings: Compound concentration 1000.0 nM
[16] = system: Mast/stem cell growth factor receptor Kit (Homo sapiens), P10721 [V559D,T670I]; settings: Compound concentration 1000.0 nM
[17] = target: Mast/stem cell growth factor receptor Kit (Homo sapiens) (UniProt P10721); settings: Compound concentration 1000.0 nM
[18] = target: Tyrosine-protein kinase Lck (Homo sapiens) (UniProt P06239); settings: Compound concentration 1000.0 nM
[19] = target: LIM domain kinase 2 (Homo sapiens) (UniProt P53671); settings: Compound concentration 1000.0 nM
[20] = system: Leucine-rich repeat serine/threonine-protein kinase 2 (Homo sapiens), Q5S007 [G2019S]; settings: Compound concentration 1000.0 nM
[21] = target: Leukocyte tyrosine kinase receptor (Homo sapiens) (UniProt P29376); settings: Compound concentration 1000.0 nM
[22] = target: Mitogen-activated protein kinase kinase kinase 4 (Homo sapiens) (UniProt Q9Y6R4); settings: Compound concentration 1000.0 nM
[23] = target: MAP kinase-activated protein kinase 2 (Homo sapiens) (UniProt P49137); settings: Compound concentration 1000.0 nM
[24] = target: Dual specificity mitogen-activated protein kinase kinase 1 (Homo sapiens) (UniProt Q02750); settings: Compound concentration 1000.0 nM
[25] = system: Hepatocyte growth factor receptor (Homo sapiens), P08581 [M1250T]; settings: Compound concentration 1000.0 nM
[26] = target: Myosin light chain kinase 2, skeletal/cardiac muscle (Homo sapiens) (UniProt Q9H1R3); settings: Compound concentration 1000.0 nM
[27] = target: Serine/threonine-protein kinase PAK 1 (Homo sapiens) (UniProt Q13153); settings: Compound concentration 1000.0 nM
[28] = target: Serine/threonine-protein kinase PAK 4 (Homo sapiens) (UniProt O96013); settings: Compound concentration 1000.0 nM
[29] = target: 3-phosphoinositide-dependent protein kinase 1 (Homo sapiens) (UniProt O15530); settings: Compound concentration 1000.0 nM
[30] = target: Calcium-dependent protein kinase 1 (Plasmodium falciparum) (UniProt P62344); settings: Compound concentration 1000.0 nM
[31] = target: Membrane-associated tyrosine- and threonine-specific cdc2-inhibitory kinase (Homo sapiens) (UniProt Q99640); settings: Compound concentration 1000.0 nM
[32] = target: Serine/threonine-protein kinase N2 (Homo sapiens) (UniProt Q16513); settings: Compound concentration 1000.0 nM
[33] = target: Protein kinase C delta type (Homo sapiens) (UniProt Q05655); settings: Compound concentration 1000.0 nM
[34] = target: Proto-oncogene tyrosine-protein kinase receptor Ret (Homo sapiens) (UniProt P07949); settings: Compound concentration 1000.0 nM
[35] = system: Proto-oncogene tyrosine-protein kinase receptor Ret (Homo sapiens), P07949 [V804M]; settings: Compound concentration 1000.0 nM
[36] = target: Rho-associated protein kinase 1 (Homo sapiens) (UniProt Q13464); settings: Compound concentration 1000.0 nM
[37] = target: Serine/threonine-protein kinase Sgk3 (Homo sapiens) (UniProt Q96BR1); settings: Compound concentration 1000.0 nM
[38] = target: Serine/threonine-protein kinase TAO2 (Homo sapiens) (UniProt Q9UL54); settings: Compound concentration 1000.0 nM
[39] = target: BDNF/NT-3 growth factors receptor (Homo sapiens) (UniProt Q16620); settings: Compound concentration 1000.0 nM
[40] = target: Transient receptor potential cation channel subfamily M member 6 (Homo sapiens) (UniProt Q9BX84); settings: Compound concentration 1000.0 nM
[41] = target: D(2) dopamine receptor (Homo sapiens) (UniProt P14416); settings: Compound concentration 10.0 uM
[42] = target: Alpha-2B adrenergic receptor (Homo sapiens) (UniProt P18089); settings: Compound concentration 10.0 uM
[43] = target: Beta-1 adrenergic receptor (Homo sapiens) (UniProt P08588); settings: Compound concentration 10.0 uM
[44] = target: Muscarinic acetylcholine receptor M5 (Homo sapiens) (UniProt P08912); settings: Compound concentration 10.0 uM
[45] = target: Sigma non-opioid intracellular receptor 1 (Homo sapiens, UniProt Q99720); settings: Compound concentration 10.0 uM

Sequence of Alpha-2B adrenergic receptor (Homo sapiens) (P18089 whole entry): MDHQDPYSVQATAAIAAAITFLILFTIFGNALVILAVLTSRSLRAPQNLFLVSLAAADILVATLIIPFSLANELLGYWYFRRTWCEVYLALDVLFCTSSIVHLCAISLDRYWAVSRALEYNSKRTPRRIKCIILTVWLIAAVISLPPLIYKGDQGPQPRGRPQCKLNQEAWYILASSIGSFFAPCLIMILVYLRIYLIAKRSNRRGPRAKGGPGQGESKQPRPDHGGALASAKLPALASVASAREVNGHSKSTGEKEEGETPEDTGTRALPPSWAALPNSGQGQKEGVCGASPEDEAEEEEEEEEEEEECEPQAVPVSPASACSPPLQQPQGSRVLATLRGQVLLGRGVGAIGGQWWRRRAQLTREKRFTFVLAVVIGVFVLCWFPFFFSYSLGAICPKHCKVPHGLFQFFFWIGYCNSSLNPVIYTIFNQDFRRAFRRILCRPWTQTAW
Sequence of Mast/stem cell growth factor receptor Kit (Homo sapiens) (P10721 whole entry): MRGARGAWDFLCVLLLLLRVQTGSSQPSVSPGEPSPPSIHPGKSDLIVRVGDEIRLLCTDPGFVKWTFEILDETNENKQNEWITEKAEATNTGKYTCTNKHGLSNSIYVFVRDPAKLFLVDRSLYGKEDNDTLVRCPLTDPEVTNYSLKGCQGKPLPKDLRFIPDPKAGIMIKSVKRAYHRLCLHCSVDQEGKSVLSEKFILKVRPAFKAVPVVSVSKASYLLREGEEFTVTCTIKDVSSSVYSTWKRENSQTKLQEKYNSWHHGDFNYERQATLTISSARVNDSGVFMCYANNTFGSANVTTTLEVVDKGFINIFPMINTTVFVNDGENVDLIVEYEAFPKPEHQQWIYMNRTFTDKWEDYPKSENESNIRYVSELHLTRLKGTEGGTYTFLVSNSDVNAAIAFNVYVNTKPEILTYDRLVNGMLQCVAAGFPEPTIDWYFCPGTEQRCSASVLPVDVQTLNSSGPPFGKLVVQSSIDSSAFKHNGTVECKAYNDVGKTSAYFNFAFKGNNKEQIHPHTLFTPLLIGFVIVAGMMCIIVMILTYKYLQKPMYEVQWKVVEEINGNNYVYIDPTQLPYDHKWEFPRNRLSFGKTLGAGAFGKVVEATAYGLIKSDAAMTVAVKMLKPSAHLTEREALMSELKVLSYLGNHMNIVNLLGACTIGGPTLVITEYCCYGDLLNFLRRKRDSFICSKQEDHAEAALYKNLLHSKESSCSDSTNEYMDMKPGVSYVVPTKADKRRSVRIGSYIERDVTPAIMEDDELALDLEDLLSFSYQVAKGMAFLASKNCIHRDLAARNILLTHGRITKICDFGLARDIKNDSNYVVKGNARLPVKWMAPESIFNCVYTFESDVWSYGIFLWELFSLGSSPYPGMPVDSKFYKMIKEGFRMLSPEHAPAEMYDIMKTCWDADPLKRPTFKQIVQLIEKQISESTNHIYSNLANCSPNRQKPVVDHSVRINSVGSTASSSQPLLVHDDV
Sequence of Serine/threonine-protein kinase TAO2 (Homo sapiens) (Q9UL54 whole entry): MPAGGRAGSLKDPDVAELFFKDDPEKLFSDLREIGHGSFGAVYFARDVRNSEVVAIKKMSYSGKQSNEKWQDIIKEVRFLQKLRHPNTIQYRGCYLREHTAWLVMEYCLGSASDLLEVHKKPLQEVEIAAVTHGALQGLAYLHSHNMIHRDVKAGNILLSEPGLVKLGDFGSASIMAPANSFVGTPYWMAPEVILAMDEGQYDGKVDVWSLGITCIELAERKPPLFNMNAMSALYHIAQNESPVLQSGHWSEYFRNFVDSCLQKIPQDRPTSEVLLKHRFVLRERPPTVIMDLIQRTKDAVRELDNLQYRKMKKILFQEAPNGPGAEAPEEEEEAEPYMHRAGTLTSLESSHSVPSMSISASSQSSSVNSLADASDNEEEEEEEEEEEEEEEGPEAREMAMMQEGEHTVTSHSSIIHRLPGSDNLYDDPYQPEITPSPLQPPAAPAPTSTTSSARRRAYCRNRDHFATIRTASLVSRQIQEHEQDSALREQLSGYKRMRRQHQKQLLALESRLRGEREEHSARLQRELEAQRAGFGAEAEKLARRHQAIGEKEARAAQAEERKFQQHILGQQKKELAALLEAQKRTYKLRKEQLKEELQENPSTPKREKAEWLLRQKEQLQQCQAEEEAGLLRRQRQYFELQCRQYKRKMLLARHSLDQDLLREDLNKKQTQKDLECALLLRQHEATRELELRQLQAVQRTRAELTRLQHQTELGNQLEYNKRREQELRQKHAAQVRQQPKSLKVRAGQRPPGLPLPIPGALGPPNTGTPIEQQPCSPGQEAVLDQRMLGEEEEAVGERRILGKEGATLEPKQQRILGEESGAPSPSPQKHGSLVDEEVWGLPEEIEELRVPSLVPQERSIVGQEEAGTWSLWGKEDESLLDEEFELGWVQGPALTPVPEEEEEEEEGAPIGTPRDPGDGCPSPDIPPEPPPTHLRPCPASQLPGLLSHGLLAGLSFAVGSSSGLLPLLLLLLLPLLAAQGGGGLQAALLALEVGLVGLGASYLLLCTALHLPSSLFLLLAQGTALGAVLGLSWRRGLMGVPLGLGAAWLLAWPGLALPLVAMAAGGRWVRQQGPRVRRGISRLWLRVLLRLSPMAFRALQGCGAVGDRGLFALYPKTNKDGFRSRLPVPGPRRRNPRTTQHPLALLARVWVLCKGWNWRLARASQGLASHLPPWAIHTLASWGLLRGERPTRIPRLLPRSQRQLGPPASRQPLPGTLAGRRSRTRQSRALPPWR
Sequence of Calcium/calmodulin-dependent protein kinase type IV (Homo sapiens) (Q16566 whole entry): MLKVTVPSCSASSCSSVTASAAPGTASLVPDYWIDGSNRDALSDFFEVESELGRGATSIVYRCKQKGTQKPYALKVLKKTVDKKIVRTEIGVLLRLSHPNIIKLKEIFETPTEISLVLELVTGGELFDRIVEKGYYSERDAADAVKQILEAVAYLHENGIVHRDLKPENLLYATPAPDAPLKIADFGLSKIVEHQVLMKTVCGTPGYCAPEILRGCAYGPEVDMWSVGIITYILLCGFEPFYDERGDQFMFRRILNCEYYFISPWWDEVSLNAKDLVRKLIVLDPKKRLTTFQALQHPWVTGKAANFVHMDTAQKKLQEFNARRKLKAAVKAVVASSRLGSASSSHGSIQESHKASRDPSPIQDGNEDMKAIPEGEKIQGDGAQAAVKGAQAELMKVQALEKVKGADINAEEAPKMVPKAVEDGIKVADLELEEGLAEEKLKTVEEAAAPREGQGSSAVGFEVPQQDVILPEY
Sequence of Dual specificity protein kinase CLK2 (Homo sapiens) (P49760 whole entry, looked up): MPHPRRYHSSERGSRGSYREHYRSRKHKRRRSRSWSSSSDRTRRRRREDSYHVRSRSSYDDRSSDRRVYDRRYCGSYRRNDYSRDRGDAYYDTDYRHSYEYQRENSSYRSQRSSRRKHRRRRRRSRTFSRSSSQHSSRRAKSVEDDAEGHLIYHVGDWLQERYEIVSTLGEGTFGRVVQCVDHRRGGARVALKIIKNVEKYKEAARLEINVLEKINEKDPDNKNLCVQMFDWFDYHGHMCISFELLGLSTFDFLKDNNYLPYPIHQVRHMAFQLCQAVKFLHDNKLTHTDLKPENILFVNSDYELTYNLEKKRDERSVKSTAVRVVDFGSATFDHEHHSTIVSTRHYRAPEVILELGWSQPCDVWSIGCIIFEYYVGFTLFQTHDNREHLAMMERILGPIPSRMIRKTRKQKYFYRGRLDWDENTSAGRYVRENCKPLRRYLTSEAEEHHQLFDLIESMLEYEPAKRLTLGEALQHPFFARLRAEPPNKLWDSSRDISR
Sequence of Tyrosine-protein kinase Lck (Homo sapiens) (P06239 2-509 limits assumed): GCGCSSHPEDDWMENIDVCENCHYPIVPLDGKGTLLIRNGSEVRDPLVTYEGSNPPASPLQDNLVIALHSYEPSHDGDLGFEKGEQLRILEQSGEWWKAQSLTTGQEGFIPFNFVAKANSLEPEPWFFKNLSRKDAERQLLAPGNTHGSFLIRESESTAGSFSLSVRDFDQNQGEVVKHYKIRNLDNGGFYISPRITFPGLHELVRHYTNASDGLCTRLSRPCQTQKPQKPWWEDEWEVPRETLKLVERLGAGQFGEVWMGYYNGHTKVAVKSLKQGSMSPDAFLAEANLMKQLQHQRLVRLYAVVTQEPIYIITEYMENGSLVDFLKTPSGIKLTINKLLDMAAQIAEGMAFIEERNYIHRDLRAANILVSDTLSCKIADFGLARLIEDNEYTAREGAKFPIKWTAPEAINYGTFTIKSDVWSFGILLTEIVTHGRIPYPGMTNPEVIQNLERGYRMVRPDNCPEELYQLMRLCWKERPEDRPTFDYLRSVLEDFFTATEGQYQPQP
Sequence of Membrane-associated tyrosine- and threonine-specific cdc2-inhibitory kinase (Homo sapiens) (Q99640 whole entry): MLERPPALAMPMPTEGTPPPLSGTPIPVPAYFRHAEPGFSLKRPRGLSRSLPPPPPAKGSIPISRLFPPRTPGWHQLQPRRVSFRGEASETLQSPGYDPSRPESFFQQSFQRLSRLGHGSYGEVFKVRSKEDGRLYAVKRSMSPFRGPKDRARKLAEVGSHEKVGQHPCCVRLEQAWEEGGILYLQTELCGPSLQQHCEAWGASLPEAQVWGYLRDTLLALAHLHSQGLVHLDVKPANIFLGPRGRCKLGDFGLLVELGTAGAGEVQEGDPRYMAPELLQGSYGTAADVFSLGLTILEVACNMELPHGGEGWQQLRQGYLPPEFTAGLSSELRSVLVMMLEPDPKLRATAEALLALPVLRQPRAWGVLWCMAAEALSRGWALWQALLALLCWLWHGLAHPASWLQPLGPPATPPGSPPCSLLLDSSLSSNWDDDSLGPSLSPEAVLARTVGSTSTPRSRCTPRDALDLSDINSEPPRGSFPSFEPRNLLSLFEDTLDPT
Sequence of Calcium/calmodulin-dependent protein kinase type 1D (Homo sapiens) (Q8IU85 whole entry, looked up): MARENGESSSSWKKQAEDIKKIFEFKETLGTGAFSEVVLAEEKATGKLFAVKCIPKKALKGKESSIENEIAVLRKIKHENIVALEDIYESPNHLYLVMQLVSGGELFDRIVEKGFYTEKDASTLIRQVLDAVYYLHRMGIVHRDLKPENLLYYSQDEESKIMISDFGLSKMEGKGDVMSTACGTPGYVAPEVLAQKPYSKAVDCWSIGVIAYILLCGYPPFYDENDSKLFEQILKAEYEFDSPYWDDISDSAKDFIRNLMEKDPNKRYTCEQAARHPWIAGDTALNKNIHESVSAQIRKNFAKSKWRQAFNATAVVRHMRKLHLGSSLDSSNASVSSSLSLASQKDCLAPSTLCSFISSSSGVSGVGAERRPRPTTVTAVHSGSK

Q: Which residual activity [1] does the source give for `O=C(Nc1ccc(Oc2ccc(F)cc2)cc1)N1CCc2ncccc2[C@H]1c1ccc(F)cc1` [BAY-897] here?
A: 100%

Q: What about the residual activity [2] of the same molecule?
A: 92%

Q: And the residual activity [3]?
A: 87%

Q: And the residual activity [4]?
A: 87%

Q: What about the residual activity [5] of the same molecule?
A: 100%

Q: And the residual activity [6]?
A: 86%

Q: And the residual activity [7]?
A: 77%

Q: What about the residual activity [8] of the same molecule?
A: 95%

Q: What about the residual activity [9] of the same molecule?
A: 90%

Q: What about the residual activity [10] of the same molecule?
A: 91%

Q: And the residual activity [11]?
A: 98%

Q: What about the residual activity [12] of the same molecule?
A: 100%

Q: What about the residual activity [13] of the same molecule?
A: 96%

Q: What about the residual activity [14] of the same molecule?
A: 89%

Q: What about the residual activity [15] of the same molecule?
A: 85%

Q: And the residual activity [16]?
A: 85%

Q: What about the residual activity [17] of the same molecule?
A: 91%

Q: What about the residual activity [18] of the same molecule?
A: 94%

Q: What about the residual activity [19] of the same molecule?
A: 93%

Q: And the residual activity [20]?
A: 100%

Q: What about the residual activity [21] of the same molecule?
A: 86%

Q: And the residual activity [22]?
A: 100%

Q: And the residual activity [23]?
A: 98%

Q: What about the residual activity [24] of the same molecule?
A: 98%

Q: And the residual activity [25]?
A: 97%

Q: What about the residual activity [26] of the same molecule?
A: 100%

Q: And the residual activity [27]?
A: 82%

Q: What about the residual activity [28] of the same molecule?
A: 94%

Q: What about the residual activity [29] of the same molecule?
A: 88%

Q: And the residual activity [30]?
A: 96%

Q: What about the residual activity [31] of the same molecule?
A: 63%

Q: What about the residual activity [32] of the same molecule?
A: 80%

Q: What about the residual activity [33] of the same molecule?
A: 100%

Q: And the residual activity [34]?
A: 94%

Q: What about the residual activity [35] of the same molecule?
A: 94%

Q: And the residual activity [36]?
A: 100%

Q: What about the residual activity [37] of the same molecule?
A: 97%

Q: And the residual activity [38]?
A: 100%

Q: What about the residual activity [39] of the same molecule?
A: 84%

Q: What about the residual activity [40] of the same molecule?
A: 100%

Q: What about the inhibition [41] of the same molecule?
A: -3.97%

Q: And the inhibition [42]?
A: 49.6%

Q: What about the inhibition [43] of the same molecule?
A: -7.28%

Q: And the inhibition [44]?
A: -1.7%

Q: And the inhibition [45]?
A: 73.4%

Q: How did the residual activity [1] turn out when `O=C(Nc1cnc(Oc2ccc(F)cc2)nc1)N1CCc2ncccc2[C@@H]1c1ccc(F)cc1` [BAY-899] was run?
A: 95%

Q: And the residual activity [2]?
A: 100%

Q: And the residual activity [3]?
A: 84%

Q: And the residual activity [4]?
A: 98%

Q: And the residual activity [5]?
A: 100%

Q: And the residual activity [6]?
A: 97%

Q: What about the residual activity [7] of the same molecule?
A: 100%

Q: And the residual activity [8]?
A: 100%

Q: What about the residual activity [9] of the same molecule?
A: 80%

Q: And the residual activity [10]?
A: 82%

Q: What about the residual activity [11] of the same molecule?
A: 100%

Q: And the residual activity [12]?
A: 82%

Q: What about the residual activity [13] of the same molecule?
A: 100%

Q: What about the residual activity [14] of the same molecule?
A: 94%

Q: What about the residual activity [15] of the same molecule?
A: 93%

Q: And the residual activity [16]?
A: 84%

Q: What about the residual activity [17] of the same molecule?
A: 81%

Q: And the residual activity [18]?
A: 83%

Q: What about the residual activity [19] of the same molecule?
A: 97%

Q: And the residual activity [20]?
A: 100%

Q: And the residual activity [21]?
A: 93%

Q: And the residual activity [22]?
A: 89%

Q: What about the residual activity [23] of the same molecule?
A: 80%

Q: What about the residual activity [24] of the same molecule?
A: 93%

Q: And the residual activity [25]?
A: 100%

Q: And the residual activity [26]?
A: 90%

Q: What about the residual activity [27] of the same molecule?
A: 71%

Q: What about the residual activity [28] of the same molecule?
A: 82%

Q: And the residual activity [29]?
A: 97%

Q: What about the residual activity [30] of the same molecule?
A: 95%

Q: And the residual activity [31]?
A: 80%

Q: And the residual activity [32]?
A: 78%

Q: And the residual activity [33]?
A: 87%

Q: What about the residual activity [34] of the same molecule?
A: 94%

Q: And the residual activity [35]?
A: 94%

Q: And the residual activity [36]?
A: 100%

Q: And the residual activity [37]?
A: 100%

Q: What about the residual activity [38] of the same molecule?
A: 87%

Q: What about the residual activity [39] of the same molecule?
A: 100%

Q: What about the residual activity [40] of the same molecule?
A: 100%

Q: And the inhibition [41]?
A: 1.65%

Q: And the inhibition [42]?
A: 9.66%

Q: And the inhibition [43]?
A: 11.3%

Q: And the inhibition [44]?
A: 12%

Q: What about the inhibition [45] of the same molecule?
A: 64.4%
